ChEMBL document CHEMBL5579818, “Identification of 3-(9H-carbazol-9-yl)-2-(1,3-dioxoisoindolin-2-yl)propanoic acids as promising DNMT1 inhibitors” (Eur J Med Chem, 2024)
Blank lines part the entries; values can stand above or below the compound they belong to. Calls of active or inactive are those of the source. The calls are words filed in the database; no cut-off is given here.

Legend:
[1] = target: T1, DNA (cytosine-5)-methyltransferase 1 (Homo sapiens, UniProt P26358); experiment: Binding affinity to human DNMT1 expressed in Escherichia coli assessed as equilibrium dissociation constant by SPR analysis
T1 sequence (P26358 whole entry): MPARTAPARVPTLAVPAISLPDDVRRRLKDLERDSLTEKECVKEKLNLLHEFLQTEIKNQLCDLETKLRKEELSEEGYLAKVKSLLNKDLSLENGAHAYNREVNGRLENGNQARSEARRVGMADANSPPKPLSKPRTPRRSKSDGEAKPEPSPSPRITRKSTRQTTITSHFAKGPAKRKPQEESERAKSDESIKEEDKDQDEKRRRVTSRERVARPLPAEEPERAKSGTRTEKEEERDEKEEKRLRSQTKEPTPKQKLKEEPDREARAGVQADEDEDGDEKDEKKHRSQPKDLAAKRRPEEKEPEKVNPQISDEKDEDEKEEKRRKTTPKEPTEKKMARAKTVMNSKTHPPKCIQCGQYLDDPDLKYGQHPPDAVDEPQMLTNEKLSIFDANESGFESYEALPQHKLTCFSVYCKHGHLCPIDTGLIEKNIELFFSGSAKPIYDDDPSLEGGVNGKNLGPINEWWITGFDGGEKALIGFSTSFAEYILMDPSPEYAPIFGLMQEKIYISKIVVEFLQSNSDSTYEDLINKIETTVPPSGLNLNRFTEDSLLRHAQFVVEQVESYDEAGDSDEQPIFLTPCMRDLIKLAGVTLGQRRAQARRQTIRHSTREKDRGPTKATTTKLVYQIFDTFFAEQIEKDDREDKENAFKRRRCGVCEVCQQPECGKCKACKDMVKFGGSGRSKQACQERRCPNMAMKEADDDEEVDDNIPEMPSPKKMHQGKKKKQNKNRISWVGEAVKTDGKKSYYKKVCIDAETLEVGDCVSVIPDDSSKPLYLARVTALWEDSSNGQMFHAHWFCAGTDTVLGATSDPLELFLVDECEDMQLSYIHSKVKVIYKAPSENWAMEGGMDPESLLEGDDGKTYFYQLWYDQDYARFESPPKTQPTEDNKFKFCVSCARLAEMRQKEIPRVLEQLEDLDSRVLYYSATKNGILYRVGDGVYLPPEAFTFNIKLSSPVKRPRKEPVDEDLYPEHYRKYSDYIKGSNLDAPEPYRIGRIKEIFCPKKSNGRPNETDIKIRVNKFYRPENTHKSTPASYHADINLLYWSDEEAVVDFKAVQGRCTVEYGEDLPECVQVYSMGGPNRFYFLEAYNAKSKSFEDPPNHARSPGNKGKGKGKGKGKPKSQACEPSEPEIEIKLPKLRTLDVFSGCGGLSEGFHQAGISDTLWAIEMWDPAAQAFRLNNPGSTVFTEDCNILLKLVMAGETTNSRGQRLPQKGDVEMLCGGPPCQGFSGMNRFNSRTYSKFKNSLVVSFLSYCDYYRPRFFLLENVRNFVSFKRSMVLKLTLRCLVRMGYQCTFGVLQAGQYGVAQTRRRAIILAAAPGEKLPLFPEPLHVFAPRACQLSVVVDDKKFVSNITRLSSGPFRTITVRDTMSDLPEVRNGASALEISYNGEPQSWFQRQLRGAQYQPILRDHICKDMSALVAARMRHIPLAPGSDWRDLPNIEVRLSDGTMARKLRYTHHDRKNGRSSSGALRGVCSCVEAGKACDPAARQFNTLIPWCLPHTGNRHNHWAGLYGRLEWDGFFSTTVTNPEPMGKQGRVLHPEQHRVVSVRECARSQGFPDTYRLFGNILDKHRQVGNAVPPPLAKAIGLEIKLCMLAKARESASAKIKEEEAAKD

[2] = target: T1, DNA (cytosine-5)-methyltransferase 1; experiment: Inhibition of DNMT1 (unknown origin) using semi-methylated DNA substrate preincubated for 15 mins followed by substrate and [3H-SAM] addition and measured after 60 mins by microbeta scintillation counting assay
HeLa [3] = experiment: Antiproliferative activity against human HeLa cells incubated for 48 hrs by MTT assay; assay type: functional, cell-based
K562 [4] = experiment: Antiproliferative activity against human K562 cells incubated for 48 hrs by MTT assay; assay type: functional, cell-based; settings: K562, 48 h
SiHa [5] = experiment: Antiproliferative activity against human SiHa cells incubated for 48 hrs by MTT assay; assay type: functional, cell-based
A2780 [6] = experiment: Antiproliferative activity against human A2780 cells incubated for 48 hrs by MTT assay; assay type: functional, cell-based; settings: A2780, 48 h
K562 [7] = experiment: Antiproliferative activity against human K562 cells at 100 uM incubated for 48 hrs by MTT assay; assay type: functional
A2780 [8] = experiment: Antiproliferative activity against human A2780 cells at 100 uM incubated for 48 hrs by MTT assay; assay type: functional
[9] = target: T1, DNA (cytosine-5)-methyltransferase 1; experiment: Binding affinity to human DNMT1 expressed in Escherichia coli assessed as response unit at 10 uM by SPR analysis
[10] = target: T1, DNA (cytosine-5)-methyltransferase 1; experiment: Inhibition of DNMT1 (unknown origin) at 250 uM using semi-methylated DNA substrate preincubated for 15 mins followed by substrate and [3H-SAM] addition and measured after 60 mins by microbeta scintillation counting assay relative to control; settings: time 75.0 min
HeLa [11] = experiment: Antiproliferative activity against human HeLa cells at 100 uM incubated for 48 hrs by MTT assay; assay type: functional
K562 [12] = experiment: Upregulation of TRAIL-R2/Dr5 expression in human K562 cells; assay type: functional, cell-based
K562 [13] = experiment: Induction of apoptosis in human K562 cells assessed as viable cells at 20 uM incubated for 48 hrs by Annexin-V/PI staining based flow cytometry assay (reference value: 92.12%); assay type: functional; settings: read-out: Activity
K562 [14] = experiment: Induction of apoptosis in human K562 cells assessed as late apoptotic cells at 20 uM incubated for 48 hrs by Annexin-V/PI staining based flow cytometry assay (reference value: 3.73%); assay type: functional
K562 [15] = experiment: Induction of cell cycle arrest in human K562 cells assessed as G2/M phase cells at 20 uM incubated for 48 hrs by PI staining based flow cytometry assay (reference value: 37.35 to 45.32%); assay type: functional
K562 [16] = experiment: Induction of apoptosis in human K562 cells assessed as necrotic cells at 60 uM incubated for 48 hrs by Annexin-V/PI staining based flow cytometry assay (reference value: 0.34%); assay type: functional
K562 [17] = experiment: Induction of apoptosis in human K562 cells assessed as early apoptotic cells at 20 uM incubated for 48 hrs by Annexin-V/PI staining based flow cytometry assay (reference value: 3.18%); assay type: functional
K562 [18] = experiment: Induction of apoptosis in human K562 cells assessed as early apoptotic cells at 60 uM incubated for 48 hrs by Annexin-V/PI staining based flow cytometry assay (reference value: 3.18%); assay type: functional
K562 [19] = experiment: Upregulation of TNFR-1 expression in human K562 cells; assay type: functional, cell-based
K562 [20] = experiment: Induction of apoptosis in human K562 cells assessed as necrotic cells at 20 uM incubated for 48 hrs by Annexin-V/PI staining based flow cytometry assay (reference value: 0.34%); assay type: functional
K562 [21] = experiment: Upregulation of CDKN1A/P21 expression in human K562 cells; assay type: functional, cell-based
K562 [22] = experiment: Induction of cell cycle arrest in human K562 cells assessed as G0-G1 phase cells at 60 uM incubated for 48 hrs by PI staining based flow cytometry assay (reference value: 33.58 to 35.82%); assay type: functional
K562 [23] = experiment: Induction of cell cycle arrest in human K562 cells assessed as G2/M phase cells at 40 uM incubated for 48 hrs by PI staining based flow cytometry assay (reference value: 37.35 to 45.32%); assay type: functional
K562 [24] = experiment: Induction of cell cycle arrest in human K562 cells assessed as G0-G1 phase cells at 40 uM incubated for 48 hrs by PI staining based flow cytometry assay (reference value: 33.58 to 35.82%); assay type: functional
K562 [25] = experiment: Induction of cell cycle arrest in human K562 cells assessed as S phase cells at 20 uM incubated for 48 hrs by PI staining based flow cytometry assay (reference value: 24.10 to 26.83%); assay type: functional
K562 [26] = experiment: Induction of apoptosis in human K562 cells assessed as late apoptotic cells at 40 uM incubated for 48 hrs by Annexin-V/PI staining based flow cytometry assay (reference value: 3.73%); assay type: functional
K562 [27] = experiment: Induction of apoptosis in human K562 cells assessed as necrotic cells at 40 uM incubated for 48 hrs by Annexin-V/PI staining based flow cytometry assay (reference value: 0.34%); assay type: functional
K562 [28] = experiment: Induction of cell cycle arrest in human K562 cells assessed as S phase cells at 40 uM incubated for 48 hrs by PI staining based flow cytometry assay (reference value: 24.10 to 26.83%); assay type: functional
K562 [29] = experiment: Induction of cell cycle arrest in human K562 cells assessed as S phase cells at 60 uM incubated for 48 hrs by PI staining based flow cytometry assay (reference value: 24.10 to 26.83%); assay type: functional
K562 [30] = experiment: Induction of cell cycle arrest in human K562 cells assessed as G2/M phase cells at 60 uM incubated for 48 hrs by PI staining based flow cytometry assay (reference value: 37.35 to 45.32%); assay type: functional
K562 [31] = experiment: Induction of apoptosis in human K562 cells assessed as viable cells at 40 uM incubated for 48 hrs by Annexin-V/PI staining based flow cytometry assay (reference value: 92.12%); assay type: functional; settings: read-out: Activity
K562 [32] = experiment: Induction of apoptosis in human K562 cells assessed as early apoptotic cells at 40 uM incubated for 48 hrs by Annexin-V/PI staining based flow cytometry assay (reference value: 3.18%); assay type: functional
K562 [33] = experiment: Induction of apoptosis in human K562 cells assessed as viable cells at 60 uM incubated for 48 hrs by Annexin-V/PI staining based flow cytometry assay (reference value: 92.12%); assay type: functional; settings: read-out: Activity
K562 [34] = experiment: Induction of apoptosis in human K562 cells assessed as late apoptotic cells at 60 uM incubated for 48 hrs by Annexin-V/PI staining based flow cytometry assay (reference value: 3.73%); assay type: functional
K562 [35] = experiment: Induction of cell cycle arrest in human K562 cells assessed as G0-G1 phase cells at 20 uM incubated for 48 hrs by PI staining based flow cytometry assay (reference value: 33.58 to 35.82%); assay type: functional
SiHa [36] = experiment: Antiproliferative activity against human SiHa cells at 100 uM incubated for 48 hrs by MTT assay; assay type: functional
[37] = target: T1, DNA (cytosine-5)-methyltransferase 1; experiment: Binding affinity to human DNMT1 expressed in Escherichia coli assessed as binding constant by SPR analysis

Compound: CC(C)(C)c1ccc2c(c1)c1cc(C(C)(C)C)ccc1n2C[C@H](C(=O)O)N1C(=O)c2ccccc2C1=O
IC50 [2]: 17.3 µM
IC50 (HeLa [3]): 59.9 µM
IC50 (K562 [4]): 17 µM
IC50 (SiHa [5]): 54.9 µM
Kd [1]: 0.666 µM
IC50 (A2780 [6]): 34.6 µM

Compound: O=C(O)C(Cn1c2ccccc2c2cc(Br)ccc21)N1C(=O)c2ccccc2C1=O (racemic)
Activity (K562 [7]): <5%
Activity (A2780 [8]): <5%
inhibition [10]: < 50%
Activity (SiHa [36]): <5%
Activity (HeLa [11]): <5%

Compound: CC(C)(C)c1ccc2c(c1)c1cc(C(C)(C)C)ccc1n2CC(C(=O)O)N1C(=O)c2ccccc2C1=O (racemic)
IC50 (HeLa [3]): 60.5 µM
Activity (K562 [7]): 99%
Activity (A2780 [8]): 98%
Activity [9]: 52.7 RU
inhibition [10]: > 75%
IC50 (K562 [4]): 22.5 µM
IC50 (SiHa [5]): 43.3 µM
Kd [1]: 0.841 µM
IC50 (A2780 [6]): 36.6 µM
Activity (HeLa [11]): 79%

Compound: O=C(O)C(Cn1c2ccccc2c2cc(OCC3CO3)ccc21)N1C(=O)c2ccccc2C1=O (racemic)
Activity (K562 [7]): <5%
Activity (A2780 [8]): <5%
inhibition [10]: < 50%
Activity (SiHa [36]): <5%
Activity (HeLa [11]): <5%

Compound: O=C(O)C(Cn1c2cc(Br)ccc2c2ccc(Br)cc21)N1C(=O)c2ccccc2C1=O (racemic)
Activity [9]: Active
inhibition [10]: > 75%

More lines, main results first:

Kd [1]: 0.145 µM
Compound: O=C(O)C(Cn1c2ccc(I)cc2c2cc(I)ccc21)N1C(=O)c2ccccc2C1=O (racemic) [listing 1 of 2 here]

IC50 (HeLa [3]): 97.6 µM
Activity [9]: 65.5 RU
inhibition [10]: > 75%
IC50 (K562 [4]): 45.8 µM
Kd [1]: 0.16 µM
IC50 (A2780 [6]): 72.8 µM
Compound: O=C(O)C(Cn1c2ccc(Cl)cc2c2cc(Cl)cc(Cl)c21)N1C(=O)c2ccccc2C1=O (racemic)
Activity (K562 [7]): 91%
Activity (A2780 [8]): 59%
IC50 (SiHa [5]): 78 µM
Activity (HeLa [11]): 52%

IC50 [2]: 40 µM
IC50 (HeLa [3]): 96.8 µM
IC50 (K562 [4]): 43.9 µM
Kd [1]: 0.183 µM
IC50 (A2780 [6]): 78.9 µM
Compound: O=C(O)[C@H](Cn1c2ccc(Cl)cc2c2cc(Cl)cc(Cl)c21)N1C(=O)c2ccccc2C1=O
Activity (K562 [12]): Active
viability at 20 µM (K562 [13]): 92.9%
Activity (K562 [14]): 3.16%
Activity (K562 [15]): 33%
Activity (K562 [16]): 1.74%
Activity (K562 [17]): 3.9%
Activity (K562 [18]): 4.28%
Activity (K562 [19]): Active
Activity (K562 [20]): 0.04%
Activity (K562 [21]): Active
Activity (K562 [22]): 61.74%
Activity (K562 [23]): 27.43%
Activity (K562 [24]): 50.95%
Activity (K562 [25]): 24.1%
Activity (K562 [26]): 4.25%
Activity (K562 [27]): 0.29%
Activity (K562 [28]): 21.62%
IC50 (SiHa [5]): 58.6 µM
Activity (K562 [29]): 17.4%
Activity (K562 [30]): 20.78%
viability at 40 µM (K562 [31]): 93.7%
Activity (K562 [32]): 1.75%
viability at 60 µM (K562 [33]): 16.7%
Activity (K562 [34]): 27.24%
Activity (K562 [35]): 35.18%

Activity [9]: 57.9 RU
inhibition [10]: > 75%
Ka [37]: 239000 M⁻¹ s⁻¹
Compound: O=C(O)C(Cn1c2ccc(I)cc2c2cc(I)ccc21)N1C(=O)c2ccccc2C1=O (racemic) [listing 2 of 2 here]

Activity [9]: Active
inhibition [10]: > 75%
Compound: O=C(O)C(Cn1c2ccc(Cl)cc2c2cc(Cl)ccc21)N1C(=O)c2ccccc2C1=O (racemic)
